Among the data in patent US20200123137A1, “DEUTERATED CFTR MODULATORS AND METHODS OF USE” (ABBVIE S.À.R.L., priority 2016, published 2020) are EC50 and Maximum % activity values, retold here.

As a reminder, the EC50 is the concentration that produces a half-maximal response.

The target of one experiment is T1, F508del/F508del CFTR (Homo sapiens, UniProt P13569, DEL508-508).
T1 construct: cells isolated from CF patients with the homozygous mutation; endogenous in cells; host or cells: primary human bronchial epithelial (hBE) cells from F508del/F508del CF patients
Put plainly: Transepithelial Clamp Circuit (TECC-24) conductance assay on primary human bronchial epithelial cells. Format: cell-based. Particulars: primary hBE cells F508del/F508del. From the text: A cell based assay using the primary human bronchial epithelial cells (hBE) was used as a secondary assay to test novel F508delCFTR correctors for their activity on primary hBE cells with F508del/F508del CFTR mutation. The assay used a TECC-24 (Transepithelial Clamp Circuit for 24 wells) instrument that measures the functionality of the mutated channel by measuring the equivalent short circuit current (Ieq) generated by the polarized epithelial cells. The instrument works by measuring the transepithelial potential difference (Vt) and transepithelial resistance (Rt) in an open circuit format, and the Ieq is calculated by using Ohms law (Ieq=Vt/Rt). The assay was run in a 24-well format and all 24-wells were measured at the same time point giving a higher throughput for this assay.
Primary human bronchial epithelial (hBE) cells from F508del/F508delCFTR patients were expanded from 1×10^6 to 250×10^6 cells (Neuberger T, Burton B, Clark H and VanGoor F; Cystic Fibrosis, Methods in Mole Biol 741; eds. Amaral M D and Kunzelmann K, 2011). […]
The % activity measured at each of the 6 test concentrations of the test compound was normalized to the on-plate positive control using the following formula: […]

Another experiment has as its target F508delCFTR (Homo sapiens, UniProt P13569, DEL508-508). Put plainly: Cell Surface Expression-Horse Radish Peroxidase (CSE-HRP) assay. Format: cell-based. Particulars: CFBE41o-F508delCFTR-HRP cells. The method, then:
A cellular assay for measuring the F508delCFTR cell surface expression after correction with test compounds was developed in human lung derived epithelial cell line (CFBE41o-) (Veit G et al, (2012) Mol Biol Cell. 23(21): 4188-4202). This was achieved by expressing the F508delCFTR mutation along with a horseradish peroxidase (HRP) in the fourth exofacial loop and then measuring the HRP activity using luminescence readout from these cells, CFBE41o-F508delCFTR-HRP, that were incubated overnight with the test corrector compounds. […] Post incubation, the plates were washed 5 x times with Dulbecco's phosphate buffered saline (DPBS), followed by the addition of the HRP substrate, luminol (50 μL), and measuring the HRP activity using luminescence readout on EnVision® Multilabel Plate Reader (Perkin Elmer; product number 2104-0010). The raw counts from the experiment are analyzed using Accelrys® Assay Explorer v3.3. […]
The % activity measured at each of the 8 test concentrations of the test compound was normalized to the on-plate positive control using the following formula: […]
The maximum % activity achieved for the test compound at any tested concentration is presented in Table 1 along with the EC50 calculated using the following general sigmoidal curve with variable Hill slope equation (described as Model 42 in the Accelrys® Assay Explorer v3.3 software): […]

Sequence of F508delCFTR (P13569 with tags, fused parts or gaps DEL508-508): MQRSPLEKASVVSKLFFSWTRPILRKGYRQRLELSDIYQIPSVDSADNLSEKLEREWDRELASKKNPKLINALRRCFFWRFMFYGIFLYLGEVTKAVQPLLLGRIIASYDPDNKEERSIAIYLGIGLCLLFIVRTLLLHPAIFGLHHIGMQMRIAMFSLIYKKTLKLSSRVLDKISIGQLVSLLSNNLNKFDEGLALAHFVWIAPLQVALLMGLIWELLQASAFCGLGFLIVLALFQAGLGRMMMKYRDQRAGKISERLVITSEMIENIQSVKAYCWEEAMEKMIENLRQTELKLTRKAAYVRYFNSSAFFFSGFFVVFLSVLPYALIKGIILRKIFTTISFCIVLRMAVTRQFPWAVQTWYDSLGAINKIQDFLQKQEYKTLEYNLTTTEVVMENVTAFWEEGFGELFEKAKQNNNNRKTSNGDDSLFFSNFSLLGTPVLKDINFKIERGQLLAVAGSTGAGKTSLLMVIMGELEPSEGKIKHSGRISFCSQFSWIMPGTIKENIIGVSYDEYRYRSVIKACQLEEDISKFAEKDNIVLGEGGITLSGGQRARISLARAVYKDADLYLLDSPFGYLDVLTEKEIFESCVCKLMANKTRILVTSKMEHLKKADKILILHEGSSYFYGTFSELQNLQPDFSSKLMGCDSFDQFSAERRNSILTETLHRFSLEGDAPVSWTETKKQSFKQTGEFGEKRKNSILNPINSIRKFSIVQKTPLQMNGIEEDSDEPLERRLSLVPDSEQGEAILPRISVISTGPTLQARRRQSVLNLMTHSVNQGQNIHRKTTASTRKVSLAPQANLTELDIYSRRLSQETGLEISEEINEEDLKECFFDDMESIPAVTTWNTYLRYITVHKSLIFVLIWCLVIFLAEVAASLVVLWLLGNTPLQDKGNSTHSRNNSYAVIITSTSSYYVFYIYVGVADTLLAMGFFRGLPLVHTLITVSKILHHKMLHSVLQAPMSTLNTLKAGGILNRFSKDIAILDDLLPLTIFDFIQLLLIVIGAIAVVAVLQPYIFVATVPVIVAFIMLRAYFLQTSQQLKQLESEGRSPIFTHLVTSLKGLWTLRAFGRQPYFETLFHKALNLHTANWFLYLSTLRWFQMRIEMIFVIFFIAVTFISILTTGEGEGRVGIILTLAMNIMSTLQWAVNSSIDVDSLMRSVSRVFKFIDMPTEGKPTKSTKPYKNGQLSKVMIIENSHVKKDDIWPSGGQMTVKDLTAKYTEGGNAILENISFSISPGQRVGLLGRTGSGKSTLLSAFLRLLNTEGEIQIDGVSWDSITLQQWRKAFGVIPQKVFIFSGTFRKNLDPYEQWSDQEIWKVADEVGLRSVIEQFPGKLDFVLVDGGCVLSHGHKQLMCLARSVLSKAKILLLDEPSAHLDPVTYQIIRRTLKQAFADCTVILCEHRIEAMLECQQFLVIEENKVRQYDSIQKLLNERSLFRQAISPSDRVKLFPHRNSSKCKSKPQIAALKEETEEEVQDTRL
T1 sequence (P13569 with tags, fused parts or gaps DEL508-508): as above

`[2H]c1cc(C(=O)O)cc([2H])c1C1Oc2cc(OC(F)F)c([2H])c([2H])c2C([2H])(NC(=O)C2(c3ccc4c(c3)OC(F)(F)O4)CC2)C1([2H])[2H]` [Example 1, 4-[(2R,4R)-4-({[1-(2,2-difluoro-1,3-benzodioxol-5-yl)cyclopropyl]carbonyl}amino)-7-(difluoromethoxy)(3,3,4,5,6-^2H5)-3,4-dihydro-2H-chromen-2-yl](3,5-^2H2)benzoic acid]: the EC50 on F508del/F508del CFTR (18-24 hours at 37° C., equivalent short circuit current (Ieq), with control potentiator) came out at 13 nM; on F508delCFTR (F508delCFTR cell surface expression, 18-24 hours at 33° C., luminescence readout) it was 27 nM. For the same compound, the Maximum % activity at F508del/F508del CFTR (relative to positive control (0.15 μM) coupled with control potentiator = 100%) was found to be 96%; at F508delCFTR (maximum at any tested concentration, normalized to on-plate positive control (3 μM)), 145%.
